From patent US20240156764A1, “INHIBITION OF URACIL DNA GLYCOSYLASE IN THE OPEN CONFORMATION” (CASE WESTERN RESERVE UNIVERSITY, priority 2022, published 2024)
pIC50: −log10 of the molar value.

Legend:
[1] = test system: uracil removal (U:G base pair) in MCF-7 cells; assay: Host-cell reactivation assay, uracil removal from reporter plasmid, MCF-7; format: cell-based, human
Protocol: (§1) A: MCF-7 cells were seeded at 50,000 cells per well in a 12-well plate. B: HAP cells (wild type or UNG gene knockout) were seeded at 75,000 cells per well in a 6-well plate. […] After 24 hours, cells were dissociated by trypsinization and analyzed by flow cytometry using an Atune NxT flow cytometer. Gating and compensation were determined by transfection of single-color controls. Reporter expression was calculated for each dose of ATA as previously described in publications and normalized to DMSO treatment.
Panel A: 1.25 μM and panel B: 2.5 μM. Reporter expression was calculated for each dose of ATA as described in prior publications and normalized to DMSO treatment.
(§2) Removal of uracil in cells was measured using a reporter plasmid containing a dU:dG base pair (referred to as BFP_U), as described previously. […] The reciprocal of BFP_U reporter expression was calculated for each experimental condition. […] This creates a premature stop codon, completely abolishing fluorescence. Removal of thymidine followed by insertion of dC opposite dG restores reporter fluorescence.
(§3) Human breast cancer MCF-7 cells were seeded at 50,000 cells per well in a 12-well plate, while HAP cells (wild type or UNG knockout) were seeded at 75,000 cells per well in a 6-well plate. […] After 24 hours, cells were dissociated by trypsinization and analyzed by flow cytometry using an Atune NxT flow cytometer. […]

[2] = test system: uracil removal in wild type HAP cells; assay: Host-cell reactivation assay, uracil removal, wild type HAP cells; format: cell-based, human; settings: ATA 5.0 μM
Protocol: as §1, §2
as §3, with “cytometer. Gating and compensation were determined by transfection of single-color controls.” for “cytometer.”

[3] = target: T1, human OGG1 protein (Homo sapiens, UniProt O15527); assay: Gel-based DNA cleavage assay with a single oxoG:C basepair; format: biochemical
T1 construct: purchased NEBiolabs (New England Biolabs)
T1 sequence (O15527 whole entry): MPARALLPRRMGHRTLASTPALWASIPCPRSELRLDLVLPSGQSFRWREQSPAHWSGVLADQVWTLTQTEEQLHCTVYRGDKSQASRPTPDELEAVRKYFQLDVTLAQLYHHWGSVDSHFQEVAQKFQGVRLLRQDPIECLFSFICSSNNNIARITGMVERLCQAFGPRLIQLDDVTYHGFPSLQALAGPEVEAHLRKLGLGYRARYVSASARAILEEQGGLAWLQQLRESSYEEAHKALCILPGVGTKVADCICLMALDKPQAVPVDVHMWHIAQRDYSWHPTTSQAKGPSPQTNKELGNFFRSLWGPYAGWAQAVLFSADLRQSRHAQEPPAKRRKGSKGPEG
Protocol: 20% polyacrylamide nucleic acid urea gel electrophoresis was used to resolve the DNA bands at room temperature, 200 v for 50 min. Analysis and quantification of DNA cleavage were done as follows. A background subtraction step was included using the 23mer from the DNA only lane. […] B: Points on the plot were averaged from four different gels. The IC50 value was generated using Prism software version 8.4.3, non-linear fit, [inhibitor] vs. response (three parameters, R2=0.99) averaging points from four different gels. Y error bars represent the standard deviation from the mean. […] A single oxo-guanine: cytosine base pair DNA with a Cy3 fluorescent tag on the 3′ end was used (10 nM). D: The IC50 value was generated using Prism software version 8.4.3, non-linear fit, [inhibitor] vs. response (three parameters, R2=0.98) averaging points from three different gels.
Following pre-incubation occurred for 20 min at 37° C., 2 μL of U:A DNA (500 nM stock) was added to initiate the reaction, total reaction volume of 50 μL/well. Each plate was incubated for 120 min at 37° C. […] Gel data were analyzed using ImageJ software. […] Percent cleavage was calculated by using fluorescence intensity of the cleaved 23-mer DNA strand divided by the sum of the fluorescence bands (23mer+40mer DNA strands)*100. […]

O=C(O)C1=CC(=C(c2ccc(O)c(C(=O)O)c2)c2ccc(O)c(C(=O)O)c2)C=CC1=O [ATA, aurintricarboxylic acid]
uracil removal in MCF-7 cells ([1]; ATA 2.5 μM, 24 hr): significantly inhibited uracil removal | uracil removal in MCF-7 cells at increasing concentrations ([1]; ATA up to 10 μM vs 2.5 μM): not statistically different from the 2.5 μM dose | reduction of uracil removal in wild type cells [2]: 1.8 fold | share of the effect of UDG knockout [2]: 60% | inhibitory effect on purified human OGG1 ([3]; OGG1 10 nM, compared with UDG): lesser inhibitory effect | pIC50 ([3]; dsDNA with single 8oxoG:C bp, gel-based): 5.35
